We go through 1 compound from article PMC12711892, “A genome-wide CRISPR screen identifies GRA38 as a key regulator of lipid homeostasis during Toxoplasma gondii adaptation to lipid-rich conditions” (Nature Communications, 2025).

This test has as its target T1, GRA38-6xHis (Toxoplasma gondii, UniProt A0A7J6JXD8).
T1 construct: gene TGRH88_051660; signal peptide (first 23 residues) removed; C-terminal 6xHis in pET-29b(+), codon-optimised, E. coli BL21; tag kept
In words: malachite green phosphate release assay (PAP activity). The test is classed as biochemical. The conditions noted are these: read-out: % inhibition at 1 mM.

T1 sequence (A0A7J6JXD8 entry or part of it): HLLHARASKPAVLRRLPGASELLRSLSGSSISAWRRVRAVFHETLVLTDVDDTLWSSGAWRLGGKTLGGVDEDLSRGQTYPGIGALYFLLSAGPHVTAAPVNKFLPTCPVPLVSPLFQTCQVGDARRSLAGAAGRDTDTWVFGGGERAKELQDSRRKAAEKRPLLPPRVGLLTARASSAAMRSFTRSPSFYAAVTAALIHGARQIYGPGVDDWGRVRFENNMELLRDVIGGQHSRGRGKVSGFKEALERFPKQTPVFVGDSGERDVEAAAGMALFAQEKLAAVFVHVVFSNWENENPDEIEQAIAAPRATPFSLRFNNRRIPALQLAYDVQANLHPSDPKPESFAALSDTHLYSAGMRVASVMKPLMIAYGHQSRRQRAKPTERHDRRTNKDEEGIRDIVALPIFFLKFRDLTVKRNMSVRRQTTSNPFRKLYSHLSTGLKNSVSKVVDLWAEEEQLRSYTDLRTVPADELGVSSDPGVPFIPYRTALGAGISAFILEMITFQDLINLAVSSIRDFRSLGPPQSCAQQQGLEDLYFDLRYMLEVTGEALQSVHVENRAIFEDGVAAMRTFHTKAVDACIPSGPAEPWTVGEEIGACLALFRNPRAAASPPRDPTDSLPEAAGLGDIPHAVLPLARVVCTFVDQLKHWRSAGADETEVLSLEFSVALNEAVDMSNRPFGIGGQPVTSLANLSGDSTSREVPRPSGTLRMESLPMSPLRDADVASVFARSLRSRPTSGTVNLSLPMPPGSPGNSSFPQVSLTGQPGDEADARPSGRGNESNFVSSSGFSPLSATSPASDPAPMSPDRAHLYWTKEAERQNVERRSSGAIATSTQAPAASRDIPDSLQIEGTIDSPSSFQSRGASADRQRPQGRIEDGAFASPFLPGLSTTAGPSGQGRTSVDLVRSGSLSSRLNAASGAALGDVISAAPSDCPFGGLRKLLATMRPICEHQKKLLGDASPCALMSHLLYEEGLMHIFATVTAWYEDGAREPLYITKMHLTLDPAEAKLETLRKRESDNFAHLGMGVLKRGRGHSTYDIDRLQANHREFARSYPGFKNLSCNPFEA

For orientation: inhibition means how much of the control response was suppressed. With `O=CC(=O)c1ccccc1` [phenylglyoxal], the inhibition at 1000 µM came out at 45%.
